# Reference: paper PMC11181022, “The molecular architecture of Lactobacillus S-layer: Assembly and attachment to teichoic acids” (Proceedings of the National Academy of Sciences of the …, 2024)
# Target: T1, SlpA_amy_III (SlpA_amy_D3) (Lactobacillus amylovorus, UniProt E4SK47)
# T1 construct: gene LA2_00970; His-tagged, 15N-labelled, expressed in E. coli BL21 DE
# T1 sequence (E4SK47 322-456): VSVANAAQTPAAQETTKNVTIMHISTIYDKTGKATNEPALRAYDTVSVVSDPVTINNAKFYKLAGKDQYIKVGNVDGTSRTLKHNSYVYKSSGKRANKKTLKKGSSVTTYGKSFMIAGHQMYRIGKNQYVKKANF
# Assay: 1H-15N HSQC NMR titration, mean Kd of per-residue shift fits
# Conditions: 20 mM ADA, 50 mM NaCl, pH 6.5, 25 C, two binding areas TAB1 and TAB2
Substance,Kd (200 uM protein) [µM],Kd (300 uM protein) [µM]
GroP pentamer,500,–
GroP trimer,–,3500
